Laboratory results published in US20140243335A1, “SUBSTITUTED HYDOXAMIC ACIDS AND USES THEREOF” (Millennium Pharmaceuticals, Inc., priority 2010, published 2014).

Each compound was assayed against T1, purified human HDAC6 (Homo sapiens, UniProt Q9UBN7) (assay: HDAC6 Enzyme Assay). Settings: HDAC6 inhibition at a compound concentration of 0.412 μM; read-out: Percent Inhibition at 0.412 μM.
T1 construct: purchased BPS Bioscience 5006
T1 sequence (Q9UBN7 1-1215): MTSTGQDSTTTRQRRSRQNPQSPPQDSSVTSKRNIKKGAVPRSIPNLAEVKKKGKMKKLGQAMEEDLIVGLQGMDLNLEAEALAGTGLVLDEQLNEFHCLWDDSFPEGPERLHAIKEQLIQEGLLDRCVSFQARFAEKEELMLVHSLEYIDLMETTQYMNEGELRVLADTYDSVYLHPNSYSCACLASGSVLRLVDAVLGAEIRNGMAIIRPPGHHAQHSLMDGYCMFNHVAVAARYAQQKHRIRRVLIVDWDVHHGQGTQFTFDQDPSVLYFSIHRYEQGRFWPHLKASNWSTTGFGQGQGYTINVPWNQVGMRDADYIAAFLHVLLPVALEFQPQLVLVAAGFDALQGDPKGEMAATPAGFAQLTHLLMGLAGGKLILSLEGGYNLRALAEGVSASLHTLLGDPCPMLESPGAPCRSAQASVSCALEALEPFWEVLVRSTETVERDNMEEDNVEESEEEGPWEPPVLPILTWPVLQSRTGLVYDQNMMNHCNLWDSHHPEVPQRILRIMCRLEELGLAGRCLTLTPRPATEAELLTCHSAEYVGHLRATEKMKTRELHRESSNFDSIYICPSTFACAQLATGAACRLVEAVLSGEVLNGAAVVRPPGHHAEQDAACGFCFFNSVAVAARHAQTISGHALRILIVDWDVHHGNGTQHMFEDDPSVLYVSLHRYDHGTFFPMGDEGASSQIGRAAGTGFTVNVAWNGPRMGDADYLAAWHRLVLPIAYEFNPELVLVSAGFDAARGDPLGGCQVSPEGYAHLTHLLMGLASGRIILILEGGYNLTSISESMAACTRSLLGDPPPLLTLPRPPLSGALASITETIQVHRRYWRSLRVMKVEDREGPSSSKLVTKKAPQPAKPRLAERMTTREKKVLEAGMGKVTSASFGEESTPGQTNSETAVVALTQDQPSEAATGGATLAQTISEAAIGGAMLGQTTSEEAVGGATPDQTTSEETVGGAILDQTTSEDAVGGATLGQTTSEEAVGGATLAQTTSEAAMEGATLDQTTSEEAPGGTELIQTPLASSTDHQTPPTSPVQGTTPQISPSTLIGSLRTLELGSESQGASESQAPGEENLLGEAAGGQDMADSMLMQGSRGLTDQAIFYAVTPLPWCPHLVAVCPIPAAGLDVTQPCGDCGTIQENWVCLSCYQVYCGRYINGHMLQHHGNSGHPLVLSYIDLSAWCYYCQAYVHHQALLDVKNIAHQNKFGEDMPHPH
Assay type: biochemical

| inhibition at 0.412 µM | SMILES |
| --- | --- |
| 90% | O=C(NO)c1ccc2c(c1)CCC(NCc1ccc(Cl)cc1)C2 (centres unmarked) [Compound I-106, 6-[(4-chlorobenzyl)amino]-N-hydroxy-5,6,7,8-tetrahydronaphthalene-2-carboxamide] |
| 92% | CC(=O)Nc1cc(C2CCc3ccc(C(=O)NO)cc3C2)ccn1 (centres unmarked) [Compound I-97, 7-[2-(acetylamino)pyridin-4-yl]-N-hydroxy-5,6,7,8-tetrahydronaphthalene-2-carboxamide] |
| 85% | O=C(NO)c1ccc2c(c1)CC(c1cccnc1)CC2 (centres unmarked) [Compound I-120, N-hydroxy-7-pyridin-3-yl-5,6,7,8-tetrahydronaphthalene-2-carboxamide] |
| 87% | O=C(NO)c1ccc2c(c1)CCC(NC(=O)c1ccc3occc3c1)C2 (centres unmarked) [Compound I-54, N-{6-[(hydroxyamino)carbonyl]-1,2,3,4-tetrahydronaphthalen-2-yl}-1-benzofuran-5-carboxamide] |
| 74% | COc1cccc(C2CCc3ccc(C(=O)NO)cc3C2)c1 (centres unmarked) [Compound I-119, N-hydroxy-7-(3-methoxyphenyl)-5,6,7,8-tetrahydronaphthalene-2-carboxamide] |
| 92% | O=C(NO)c1ccc2c(c1)CCC(Oc1ccnc(C(=O)NC3CCNCC3)c1)C2 (centres unmarked) [Compound I-220, 4-({6-[(hydroxyamino)carbonyl]-1,2,3,4-tetrahydronaphthalen-2-yl}oxy)-N-piperidin-4-ylpyridine-2-carboxamide] |
| 60% | O=C(NO)c1ccc2c(c1)CCC[C@@H]2NC(=O)c1cc(-c2ccc(F)cc2)n[nH]1 [Compound I-71, 3-(4-fluorophenyl)-N-{(1S)-6-[(hydroxyamino)carbonyl]-1,2,3,4-tetrahydronaphthalen-1-yl}-1H-pyrazole-5-carboxamide] |
| 82% | COc1cccc(NC2CCc3ccc(C(=O)NO)cc3C2)c1 (centres unmarked) [Compound I-84, N-hydroxy-7-[(3-methoxyphenyl)amino]-5,6,7,8-tetrahydronaphthalene-2-carboxamide] |
| 75% | CC(C)(C)C(=O)NC1CCc2cc(C(=O)NO)ccc2C1 (centres unmarked) [Compound I-111, 6-[(2,2-dimethylpropanoyl)amino]-N-hydroxy-5,6,7,8-tetrahydronaphthalene-2-carboxamide] |
| 34% | O=C(Cc1c(F)cccc1F)NC1CCCc2cc(C(=O)NO)ccc21 (centres unmarked) [Compound I-1, 5-{[(2,6-difluorophenyl)acetyl]amino}-N-hydroxy-5,6,7,8-tetrahydronaphthalene-2-carboxamide] |
| 86% | CN(C)CCOc1cccc(C2CCc3ccc(C(=O)NO)cc3C2)c1 (centres unmarked) [Compound I-194, 7-{3-[2-(dimethylamino)ethoxy]phenyl}-N-hydroxy-5,6,7,8-tetrahydronaphthalene-2-carboxamide] |
| 23% | COc1ccc(C(C(=O)NC2CCCc3cc(C(=O)NO)ccc32)c2ccccc2)cc1 (centres unmarked) [Compound I-41, N-hydroxy-5-{[(4-methoxyphenyl)(phenyl)acetyl]amino}-5,6,7,8-tetrahydronaphthalene-2-carboxamide] |
| 71% | O=C(NO)c1ccc2c(c1)CCCC2NC(=O)c1cc(-c2ccc(F)cc2)n[nH]1 (centres unmarked) [Compound I-43, 3-(4-fluorophenyl)-N-{6-[(hydroxyamino)carbonyl]-1,2,3,4-tetrahydronaphthalen-1-yl}-1H-pyrazole-5-carboxamide] |
| 26% | Cn1cccc1C(=O)N[C@H]1CCCc2cc(C(=O)NO)ccc21 [Compound I-67, N-{(1S)-6-[(hydroxyamino)carbonyl]-1,2,3,4-tetrahydronaphthalen-1-yl}-1-methyl-1H-pyrrole-2-carboxamide] |
| 20% | Cc1cc(C(=O)NC2CCCc3cc(C(=O)NO)ccc32)n(C(C)(C)C)n1 (centres unmarked) [Compound I-19, 1-tert-butyl-N-{6-[(hydroxyamino)carbonyl]-1,2,3,4-tetrahydronaphthalen-1-yl}-3-methyl-1H-pyrazole-5-carboxamide] |
| 84% | O=C(NO)c1ccc2c(c1)CCC(NCc1ccncc1)C2 (centres unmarked) [Compound I-107, N-hydroxy-6-[(pyridin-4-ylmethyl)amino]-5,6,7,8-tetrahydronaphthalene-2-carboxamide] |
| 84% | O=C(NO)c1ccc2c(c1)CC(c1ccccc1)CC2 (centres unmarked) [Compound I-89, N-hydroxy-7-phenyl-5,6,7,8-tetrahydronaphthalene-2-carboxamide] |
| 46% | O=C(NO)c1ccc2c(c1)CCCC2NC(=O)c1cc2ccccc2s1 (centres unmarked) [Compound I-24, N-{6-[(hydroxyamino)carbonyl]-1,2,3,4-tetrahydronaphthalen-1-yl}-1-benzothiophene-2-carboxamide] |
| 90% | O=C(NO)c1ccc2c(c1)CCC(Oc1ccnc(Nc3ccc(Cl)cc3)c1)C2 (centres unmarked) [Compound I-228, 6-({2-[(4-chlorophenyl)amino]pyridin-4-yl}oxy)-N-hydroxy-5,6,7,8-tetrahydronaphthalene-2-carboxamide] |
| 18% | O=C(NO)c1ccc2c(c1)CCC[C@H]2NC(=O)c1cc2cc(Cl)ccc2o1 [Compound I-63, 5-chloro-N-{(1R)-6-[(hydroxyamino)carbonyl]-1,2,3,4-tetrahydronaphthalen-1-yl}-1-benzofuran-2-carboxamide] |
| 16% | Cn1cccc1C(=O)N[C@@H]1CCCc2cc(C(=O)NO)ccc21 [Compound I-65, (R)-N-(6-(hydroxycarbamoyl)-1,2,3,4-tetrahydronaphthalen-1-yl)-1-methyl-1H-pyrrole-2-carboxamide] |
| 69% | CN(C)Cc1cccc(C2CCc3cc(C(=O)NO)ccc3C2)c1 (centres unmarked) [Compound I-183, 6-{3-[(dimethylamino)methyl]phenyl}-N-hydroxy-5,6,7,8-tetrahydronaphthalene-2-carboxamide] |
| 55% | O=C(NO)c1ccc2c(c1)CCC(c1ccc(Cl)cc1)C2 (centres unmarked) [Compound I-101, 6-(4-chlorophenyl)-N-hydroxy-5,6,7,8-tetrahydronaphthalene-2-carboxamide] |
| 92% | O=C(NO)c1ccc2c(c1)CC(OCc1ccc(Cl)cc1)CC2 (centres unmarked) [Compound I-117, 7-[(4-chlorobenzyl)oxy]-N-hydroxy-5,6,7,8-tetrahydronaphthalene-2-carboxamide] |
| 11% | CC(C)(C)CC(=O)NC1CCCc2cc(C(=O)NO)ccc21 (centres unmarked) [Compound I-5, 5-[(3,3-dimethylbutanoyl)amino]-N-hydroxy-5,6,7,8-tetrahydronaphthalene-2-carboxamide] |
| 56% | COc1ccccc1C1CCc2cc(C(=O)NO)ccc2C1 (centres unmarked) [Compound I-104, N-hydroxy-6-(2-methoxyphenyl)-5,6,7,8-tetrahydronaphthalene-2-carboxamide] |
| 26% | COc1ccc2c(CC(=O)NC3CCCc4cc(C(=O)NO)ccc43)coc2c1 (centres unmarked) [Compound I-36, N-hydroxy-5-{[(6-methoxy-1-benzofuran-3-yl)acetyl]amino}-5,6,7,8-tetrahydronaphthalene-2-carboxamide] |

| SMILES | inhibition at 0.412 µM |
| --- | --- |
| O=C(NO)c1ccc2c(c1)C1CCC2N1C(=O)c1ccc(-c2ccccc2)cc1 (centres unmarked) [Compound I-199, 9-(biphenyl-4-ylcarbonyl)-N-hydroxy-1,2,3,4-tetrahydro-1,4-epiminonaphthalene-6-carboxamide] | 70% |
| O=C(NO)c1ccc2c(c1)C1CCC2N1C(=O)C12CC3CC(CC(C3)C1)C2 (centres unmarked) [Compound I-205, 9-(1-adamantylcarbonyl)-N-hydroxy-1,2,3,4-tetrahydro-1,4-epiminonaphthalene-6-carboxamide] | 17% |
| O=C(NO)c1ccc2c(c1)C1CCC2N1C(=O)c1ccccn1 (centres unmarked) [Compound I-210, N-hydroxy-9-(pyridin-2-ylcarbonyl)-1,2,3,4-tetrahydro-1,4-epiminonaphthalene-6-carboxamide] | 28% |
| CC(C)(C)c1ccc(C(=O)N2C3CCC2c2cc(C(=O)NO)ccc23)cc1 (centres unmarked) [Compound I-200, 9-(4-tert-butylbenzoyl)-N-hydroxy-1,2,3,4-tetrahydro-1,4-epiminonaphthalene-6-carboxamide] | 67% |
| O=C(NO)c1ccc2c(c1)C1CCC2N1C(=O)c1cc2ccccc2o1 (centres unmarked) [Compound I-202, 9-(1-benzofuran-2-ylcarbonyl)-N-hydroxy-1,2,3,4-tetrahydro-1,4-epiminonaphthalene-6-carboxamide] | 19% |
